Measurements from patent publication US20220323429A1, “PIMAVANSERIN FOR TREATING NEURODEGENERATIVE DISEASES” (ACADIA Pharmaceuticals Inc., priority 2019, published 2022).

Assay: Assay from diluted impurity samples (mass balance), in-use stability
Type: physicochemical
Details: for Assay (%) from diluted impurity sample: ambient; for Absolute Difference from Time 0 (%): diluted impurity sample
Method: Analytical HPLC Stability Study experiments (Example 1) were performed on Agilent 1200 Series, or equivalent; Waters XBridge C18 column, 5 μm 150×4.6 mm; mobile phase: Solvent A: 50 mM ammonium bicarbonate, pH 8.0; Solvent B: acetonitrile/methanol, 80:20 (v/v); Flow rate: 1 mL/min; Inj. Volume 20 μL; Autosampler Temp. 5° C.; column temperature: 40° C., detection UV at 210 nm; sample concentration (as free base) assay: 0.068 mg/mL, impurity: 0.68 mg/mL; standard concentration (as free base) 0.068 mg/mL; PLOQ Std. 0.05% of 0.68 mg/mL; SST solution, 1% of 0.68 mg/mL (impurities A, C, D, E, F, and G); diluent for standards 80/20 (v/v) ethanol/water; diluent for samples, ethanol; run time 40 min; gradient method: 0 min mobile phase A (90%) and mobile phase B (10%) to 30 min mobile phase A (0%), and mobile phase B (100%); then 30.1 min to 40 min mobile phase A (90%), mobile phase B (10%).
For each sample, one capsule was weighed, and the content of each capsule was dropped into a 50 mL volumetric flask and the empty capsule shell was weighed and discarded. The specified amount of each vehicle was added as specified in Table 3, below.
The flasks were gently swirled to ensure the capsule contents were visually incorporated with the vehicle. The flasks were kept on the bench at ambient temperature for each time point: 2, 4, and 24 hours. Time 0 samples were processed immediately. At the specified time point a stir bar and approximately 45 mL of diluent were added to the flask. The solution was stirred vigorously for 2 hours, and the flask was left on the bench overnight. The next day the flasks were sonicated for approximately 30 minutes. The stir bar was removed and rinsed carefully with diluent into the flask, and the flask was diluted to volume with diluent and mixed well by inversion. An aliquot of each solution was centrifuged for 5 minutes at 10000 rpm. The supernatant was transferred to a HPLC vial, and injected for analysis.
Samples were prepared by transferring the stock volume using a volumetric pipet into a 20 mL volumetric flask, diluted to volume with diluent, and mixed well by inversion. An aliquot of each solution was centrifuged for 5 minutes at 10000 rpm. The supernatant was transferred to a HPLC vial and injected for analysis.

SMILES: CC(C)COc1ccc(CNC(=O)N(Cc2ccc(F)cc2)C2CCN(C)CC2)cc1 [Pimavanserin, N-(4-Fluorophenylmethyl)-N-(1-methylpiperidin-4-yl)-N′-(4-(2-methylpropyloxy)phenylmethyl)carbamide]
- Assay (%) from diluted impurity sample (Ensure 5 mL, T = 0): 97.1%
- Assay (%) from diluted impurity sample (Ensure 5 mL, T = 2 h): 94.6%
- Assay (%) from diluted impurity sample (Ensure 5 mL, T = 4 h): 97.9%
- Assay (%) from diluted impurity sample (Ensure 5 mL, T = 24 h): 97.3%
- Absolute Difference from Time 0 (%) (Ensure, T = 0): 2.9%
- Absolute Difference from Time 0 (%) (Ensure, T = 2 h): 5.4%
- Absolute Difference from Time 0 (%) (Ensure, T = 4 h): 2.1%
- Absolute Difference from Time 0 (%) (Ensure, T = 24 h): 2.7%
- Assay (%) from diluted impurity sample (applesauce 5 g, T = 0): 97.5%
- Assay (%) from diluted impurity sample (applesauce 5 g, T = 2 h): 99.4%
- Assay (%) from diluted impurity sample (applesauce 5 g, T = 4 h): 104.1%
- Assay (%) from diluted impurity sample (applesauce 5 g, T = 24 h): 99.5%
- Absolute Difference from Time 0 (%) (applesauce, T = 0): 4.4%
- Absolute Difference from Time 0 (%) (applesauce, T = 2 h): 2.5%
- Absolute Difference from Time 0 (%) (applesauce, T = 4 h): 2.2%
- Absolute Difference from Time 0 (%) (applesauce, T = 24 h): 2.4%
- assay results difference from time 0 (diluted impurity samples, all vehicles and times): ≤ 5%
- Assay (%) from diluted impurity sample (orange juice 5 mL, T = 0): 97.7%
- Assay (%) from diluted impurity sample (orange juice 5 mL, T = 2 h): 97.5%
- Assay (%) from diluted impurity sample (orange juice 5 mL, T = 4 h): 96.4%
- Assay (%) from diluted impurity sample (orange juice 5 mL, T = 24 h): 99.2%
- Absolute Difference from Time 0 (%) (orange juice, T = 0): 2.6%
- Absolute Difference from Time 0 (%) (orange juice, T = 2 h): 2.8%
- Absolute Difference from Time 0 (%) (orange juice, T = 4 h): 3.9%
- Absolute Difference from Time 0 (%) (orange juice, T = 24 h): 1.1%
- Assay (%) from diluted impurity sample (water 5 mL, T = 0): 95.6%
- Assay (%) from diluted impurity sample (water 5 mL, T = 2 h): 98.2%
- Assay (%) from diluted impurity sample (water 5 mL, T = 4 h): 97.1%
- Assay (%) from diluted impurity sample (water 5 mL, T = 24 h): 97.5%
- Absolute Difference from Time 0 (%) (water, T = 0): 3.3%
- Absolute Difference from Time 0 (%) (water, T = 2 h): 0.7%
- Absolute Difference from Time 0 (%) (water, T = 4 h): 1.8%
- Absolute Difference from Time 0 (%) (water, T = 24 h): 1.4%
